From the GenesisPotency data set come the findings set out here.

Test [1] concerns the target T1, Muscarinic acetylcholine receptor M5, Homo sapiens (UniProt P08912).
T1 sequence (whole entry): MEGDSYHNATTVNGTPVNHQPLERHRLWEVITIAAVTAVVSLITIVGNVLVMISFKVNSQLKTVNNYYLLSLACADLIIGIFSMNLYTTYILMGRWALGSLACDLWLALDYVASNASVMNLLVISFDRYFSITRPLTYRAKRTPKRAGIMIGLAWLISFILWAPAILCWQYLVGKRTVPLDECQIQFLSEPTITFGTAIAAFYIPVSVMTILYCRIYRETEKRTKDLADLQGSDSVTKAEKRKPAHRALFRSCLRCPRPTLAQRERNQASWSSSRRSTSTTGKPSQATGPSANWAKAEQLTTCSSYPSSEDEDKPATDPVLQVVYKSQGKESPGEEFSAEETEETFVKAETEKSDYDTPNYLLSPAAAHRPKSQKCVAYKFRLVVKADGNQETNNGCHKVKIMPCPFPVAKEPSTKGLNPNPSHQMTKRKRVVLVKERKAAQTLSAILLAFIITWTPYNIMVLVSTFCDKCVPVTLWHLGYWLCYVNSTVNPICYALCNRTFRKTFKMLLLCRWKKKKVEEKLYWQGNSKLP

The target in test [2] is Inositol hexakisphosphate kinase 1, Homo sapiens (UniProt Q92551).
Chain of Inositol hexakisphosphate kinase 1, Homo sapiens (Q92551 whole entry, looked up): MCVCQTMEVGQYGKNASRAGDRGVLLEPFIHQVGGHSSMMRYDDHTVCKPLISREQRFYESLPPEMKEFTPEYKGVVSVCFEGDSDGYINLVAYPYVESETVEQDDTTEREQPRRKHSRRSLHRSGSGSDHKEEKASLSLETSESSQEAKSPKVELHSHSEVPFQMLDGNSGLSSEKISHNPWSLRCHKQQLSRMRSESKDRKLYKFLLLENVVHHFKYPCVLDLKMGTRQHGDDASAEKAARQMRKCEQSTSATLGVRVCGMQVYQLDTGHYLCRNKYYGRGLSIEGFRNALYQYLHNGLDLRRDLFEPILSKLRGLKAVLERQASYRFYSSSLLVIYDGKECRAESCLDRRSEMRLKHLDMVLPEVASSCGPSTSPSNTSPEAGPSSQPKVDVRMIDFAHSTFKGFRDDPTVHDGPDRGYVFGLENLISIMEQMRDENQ
Test [3] addresses T2, Mitogen-activated protein kinase kinase kinase 7/TGF-beta-activated kinase 1 and MAP3K7-binding protein 1, Homo sapiens (UniProt O43318+Q15750).
T2 sequence (whole entry): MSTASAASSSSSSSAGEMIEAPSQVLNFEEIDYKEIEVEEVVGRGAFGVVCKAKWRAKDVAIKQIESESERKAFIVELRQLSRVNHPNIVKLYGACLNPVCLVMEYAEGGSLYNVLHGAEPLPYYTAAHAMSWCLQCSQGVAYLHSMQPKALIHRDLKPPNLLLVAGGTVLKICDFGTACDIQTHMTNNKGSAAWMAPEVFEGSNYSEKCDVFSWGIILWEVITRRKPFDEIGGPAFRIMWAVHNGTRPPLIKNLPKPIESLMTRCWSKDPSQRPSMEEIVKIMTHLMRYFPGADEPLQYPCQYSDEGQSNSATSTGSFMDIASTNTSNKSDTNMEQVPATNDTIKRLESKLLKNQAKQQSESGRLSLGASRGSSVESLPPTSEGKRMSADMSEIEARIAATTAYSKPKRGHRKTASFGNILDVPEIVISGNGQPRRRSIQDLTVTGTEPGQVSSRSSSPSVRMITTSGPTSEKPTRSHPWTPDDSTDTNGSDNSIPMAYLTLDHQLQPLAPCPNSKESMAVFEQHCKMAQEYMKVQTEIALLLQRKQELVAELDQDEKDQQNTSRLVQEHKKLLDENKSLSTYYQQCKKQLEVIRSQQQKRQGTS

Test [4] has as its target Carbonic anhydrase 2, Homo sapiens (UniProt P00918).
Test [5] deals with Delta-type opioid receptor, Mus musculus (UniProt P32300).
Chain of Delta-type opioid receptor, Mus musculus (P32300 whole entry): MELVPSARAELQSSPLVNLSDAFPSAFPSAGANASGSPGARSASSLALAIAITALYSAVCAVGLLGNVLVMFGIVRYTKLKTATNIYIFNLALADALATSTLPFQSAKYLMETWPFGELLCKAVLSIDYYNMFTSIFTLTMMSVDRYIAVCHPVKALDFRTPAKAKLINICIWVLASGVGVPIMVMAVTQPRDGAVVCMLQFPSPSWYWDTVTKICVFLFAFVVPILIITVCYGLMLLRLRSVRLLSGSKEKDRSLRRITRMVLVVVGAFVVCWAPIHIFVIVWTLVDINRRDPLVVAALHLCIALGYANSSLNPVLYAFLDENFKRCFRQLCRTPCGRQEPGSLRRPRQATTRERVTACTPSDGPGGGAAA
In test [6] the target is T3, Glycylpeptide N-tetradecanoyltransferase, Trypanosoma brucei brucei (strain 927/4 GUTat10.1) (UniProt Q388H8).
T3 sequence (whole entry): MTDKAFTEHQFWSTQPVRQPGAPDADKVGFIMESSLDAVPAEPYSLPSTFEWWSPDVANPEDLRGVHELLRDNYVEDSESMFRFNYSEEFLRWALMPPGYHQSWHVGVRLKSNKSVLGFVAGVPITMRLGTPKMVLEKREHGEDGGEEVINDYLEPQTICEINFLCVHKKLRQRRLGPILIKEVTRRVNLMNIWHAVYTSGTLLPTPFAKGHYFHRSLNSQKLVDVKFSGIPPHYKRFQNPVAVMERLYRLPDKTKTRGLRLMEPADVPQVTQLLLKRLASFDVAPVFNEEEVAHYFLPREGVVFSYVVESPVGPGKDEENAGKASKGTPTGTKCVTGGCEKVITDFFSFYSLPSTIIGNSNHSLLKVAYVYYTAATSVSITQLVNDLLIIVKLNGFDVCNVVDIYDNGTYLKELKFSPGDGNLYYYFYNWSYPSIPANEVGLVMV

For test [7], the target named is T4, Carbonic anhydrase, Pseudomonas aeruginosa (strain ATCC 15692 / DSM 22644 / CIP 104116 / JCM 14847 / LMG 12228 / 1C / PRS 101 / PAO1) (UniProt Q9HVB9).
T4 sequence (whole entry): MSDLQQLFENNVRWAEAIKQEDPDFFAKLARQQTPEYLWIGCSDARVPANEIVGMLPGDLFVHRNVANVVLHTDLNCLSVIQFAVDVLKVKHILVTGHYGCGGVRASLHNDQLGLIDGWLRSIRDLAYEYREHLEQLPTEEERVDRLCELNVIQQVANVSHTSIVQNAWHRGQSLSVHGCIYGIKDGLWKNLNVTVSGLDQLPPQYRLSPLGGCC

Test [8] concerns the target T5, Carbonic anhydrase, Methanosarcina thermophila (strain ATCC 43570 / DSM 1825 / OCM 12 / VKM B-1830 / TM-1) (UniProt P40881).
T5 sequence (whole entry): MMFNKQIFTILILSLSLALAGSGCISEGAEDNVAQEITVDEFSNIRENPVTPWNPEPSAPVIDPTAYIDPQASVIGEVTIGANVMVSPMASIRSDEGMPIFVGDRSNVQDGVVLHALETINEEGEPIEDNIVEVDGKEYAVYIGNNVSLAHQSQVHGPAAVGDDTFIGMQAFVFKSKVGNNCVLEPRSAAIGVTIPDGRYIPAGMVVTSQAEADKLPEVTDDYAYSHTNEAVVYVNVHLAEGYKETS

The target in test [9] is Carbonic anhydrase 2, Homo sapiens (UniProt P00918). The source holds these as a separate data set.

The structures appear in SMILES notation. Some results are limits rather than exact numbers.

Regarding `O=c1c(OC2C(O)OC(CO)C(O)C2O)c(-c2ccc(O)c(O)c2)oc2cc(O)cc(O)c12` (stereo not given), in test [1], the Ki was more than 10 µM.

The molecule `O=[N+](O)c1ccc(CNc2nc(NCc3cccc(C(F)(F)F)c3)nc3[nH]cnc23)cc1` showed an IC50 in test [2] of less than 200 µM.

Regarding `O=C1CSC(/N=N/c2c(O)[nH]c3ccccc23)=N1`, in test [3], the IC50 is more than 5 µM.

`CC(C)[C@H]1NC(=O)[C@@H](C)[C@@H](CC=CCCC(N)=O)NC(=O)[C@@H](Cc2ccc(O)cc2)NC(=O)[C@@H](C)NC1=O` displayed a Ki in test [4] of more than 10 µM.

The molecule `COc1cc2c(c(OC)c1OC)-c1cc3c(cc1C(=O)[C@@H]1COC(=O)[C@H]1C2)OCO3` had an IC50 in test [5] of more than 10 µM.

Regarding `Cc1nn(C)c(C)c1N[SH+]([O-])c1c(Cl)cc(-c2ccc(OC(F)(F)F)cc2)cc1-c1ccc(OC(F)(F)F)cc1` (stereo not given), the IC50 in test [6] was more than 100 µM.

Take `C=CC(=O)Nc1ccc(Cn2nc(-c3ccc4[nH]c(C)nc4c3)c3c(N)ncnc32)cc1`: the Ki in test [7] was more than 100000 µM; in test [8] it was more than 200000 µM; in [9], more than 200000 µM.

In turn, `CC(C)[C@H]1NC(=O)[C@@H](C)[C@@H](CC=CCCC(=O)O)NC(=O)[C@@H](Cc2ccc(O)cc2)NC(=O)[C@@H](C)NC1=O` had an inhibition constant (Ki) in test [4] of more than 10 µM.
